Publication PMC9458217, “Synthesis and Biological Evaluation of Cassane Diterpene (5α)-Vuacapane-8(14), 9(11)-Diene and of Some Related Compounds” (Molecules, 2022)
In brackets after ≈: the same amount, converted by molar mass. Several values for one entry are separate records, joined by “and”; a condition that tells them apart may be missing. Equal entries are not always repeated. Where two headings read alike, the source gives them in different places.

Columns and labels:
[1] = system: RAW 264.7 monocyte/macrophage murine cells; assay: MTT cytotoxicity on RAW 264.7 cells; type: cell-based; conditions: Mus musculus
Method: MTT is transformed to formazan in cells with metabolism capacity (viable cells), as the number of viable cells is proportional to formazan concentration; this assay was used to determine the cytotoxicity of the compounds.
In all experiments, subconfluent monolayer cells were used.
The effect of compounds on the cell viability was determined by the MTT method (Sigma, St. Louis, MO, USA). The cytotoxicity of the compounds was detected by measuring the absorbance of MTT dye staining of cells with metabolism capacity. […] Finally, after 72 h, 100 μL of MTT solution (0.5 mg/mL) in 50% of PBS and 50% of the medium was added to each well. After 1.5 h of incubation, formazan was re-suspended in 100 μL of DMSO, and each concentration was tested in triplicate.
(§1) Experimental cytotoxicity data were fitted to a sigmoidal function (y = ymax/ (x/a)^−b) by non-linear regression. […] Similar analyses were performed to obtain the IC50 of NO production (IC50 NO). All shown data are representative of at least two independent experiments performed in triplicate. All quantitative data were summarized as the means ± standard deviation (SD).

[2] = system: LPS-stimulated RAW 264.7 murine macrophage cells; assay: Inhibition of NO production (nitrite, Griess reaction) in LPS-stimulated RAW 264.7 cells; type: cell-based; conditions: for IC50: Mus musculus, RAW264.7, 72 h; for IC50 / IC50 NO: LPS-activated RAW 264.7, 72 h of incubation; for NO inhibition: 72 h
Method: The activation of the inflammatory process induces nitric oxide, NO, released as a second messenger. NO production can be used as the main indicator to assess inflammatory activity, which can be measured using nitrite (NO^2–) quantification (proportional to the released NO), determined through the Griess reaction. […] Inhibition percentages were calculated with respect to the increase between positive control (only LPS treated control cells) and negative control (untreated control cells).
The absorbance was referred to nitrite standard curve to determine the concentration of nitrite in the supernatant of each experimental sample. The percentage of NO production was determined, assigning 100% at the increase between negative control (untreated cells) and positive control (cells only treated with 10 μg/mL of LPS).
as §1

[3] = system: HT29 human colorectal adenocarcinoma cell line; assay: MTT cytotoxicity on HT29 cells; conditions: HT-29, 72 h
Method: (§2) These studies were performed using the MTT assay, based on formazan dye formation and expressed as a percentage with respect to untreated control cells (100% of cell metabolism).
(§3) The effect of compounds on the cell viability was determined by the MTT method [27] (Sigma, St. Louis, MO, USA). The cytotoxicity of the compounds was detected by measuring the absorbance of MTT dye staining of cells with metabolism capacity. […] Finally, after 72 h, 100 μL of MTT solution (0.5 mg/mL) in 50% of PBS and 50% of the medium was added to each well. After 1.5 h of incubation, formazan was re-suspended in 100 μL of DMSO, and each concentration was tested in triplicate.
(§4) Experimental cytotoxicity data were fitted to a sigmoidal function (y = ymax/ (x/a)^−b) by non-linear regression. […] All shown data are representative of at least two independent experiments performed in triplicate. All quantitative data were summarized as the means ± standard deviation (SD).

[4] = system: HepG2 human hepatocarcinome cell-line; assay: MTT cytotoxicity on HepG2 cells; conditions: HepG2, 72 h
Method: as §2, §3, §4

[5] = system: B16-F10 mouse melanoma cells; assay: MTT cytotoxicity on B16-F10 cells
Method: as §2, §3, §4

[6] = system: RAW 264.7 cells, activated by LPS; assay: Cell cycle distribution of LPS-activated RAW 264.7 cells, flow cytometry with PI; type: cell-based, murine
Method: The cell-cycle distribution was analyzed by flow cytometry with propidium iodide (IP) staining (Figure 3). Significant growth arrest of the cell cycle in LPS-induced RAW 264.7 cells produced 100% detention in the G0/G1 phase (positive control) compared to the negative control (49.6%). After incubation with compound 20, the percentage of cells found in the G0/G1 phase was 29%, 32%, and 36%, respectively, at the assayed concentrations. Similar results were found for compound 16 (35%, 38%, and 39%) after 72 h of incubation at the same concentrations. This decrease was accompanied by the consequent increase in the number of cells in the S phase: 70%, 68%, and 56%, respectively, for compound 20, and 63%, 61%, and 59% for compound 16. […] This recovery of the cell cycle with respect to control cells (only LPS treated) could be a consequence of the anti-inflammatory effect produced by the tested compounds, which increase cell division, rescuing RAW 264.7 cells from LPS-induced arrest during their monocyte/macrophage differentiation process.
DNA content is directly proportional to the PI fluorescence; it allows us to determine the percentage of cells in each cell cycle phase. Using a fluorescence-activated cell sorter (FACS) at 488 nm in an Epics XL flow cytometer (Coulter Corporation, Hialeah, FL, USA), cell subpopulations could be visualized with different DNA contents. […] By treating cells only with LPS, the positive control was performed. However, the negative control was prepared, exposing cells […]. After treatment, cells were washed twice with PBS and trypsine solution, then resuspended in TBS 1X (10 Mm Tris, 150 Mm NaCl) and then Vindelov buffer (100 mM Tris, 100 Mm NaCl, 10 mg/mL Rnasa, 1 mg/mL PI, pH 8) was added. The samples were placed for 15 min on ice. Immediately before FACS analysis, cells were stained with 20 μL of 1 mg/mL PI solution. Data were analyzed to determine the percentage of cells in each cell cycle phase (G0/G1, S, and G2/M).

[7] = system: LPS-induced J774.A1 macrophage cells; design: method as in PMID 34990974; conditions: 50 μM, natural compounds; cited from earlier work
[8] = RAW264.7, RAW 264.7, MTT, 72 h of incubation, 20% cell viability inhibition, read-out: IC20
[9] = RAW264.7, RAW 264.7, MTT, 72 h of incubation, 80% cell viability inhibition, read-out: IC80
[10] = RAW264.7, RAW 264.7, MTT, 72 h of incubation, read-out: IC50

SMILES	IC20 [1, 8] [µg/mL]	IC80 [1, 9] [µg/mL]	IC50 [1, 10] [µg/mL]	IC50 [2] [µg/mL]	IC50 ([3]; HT29, MTT, 72 h) [µg/mL]	IC50 [4] [µg/mL]	IC50 ([5]; Mus musculus, B16-F10, 72 h) [µg/mL]	NO inhibition ([2]; at ¾ IC50 concentration)	IC50 ([5]; 72 h)	further results
COC(=O)C1=C(C(=O)OC)C2(C)CC[C@H]3C(C)(C)CCC[C@]3(C)C2=CC1 (some centres unmarked) [Compound 15]	43.7 ± 2.37 (≈ 121 µM)	83.67 ± 0.64 (≈ 232 µM)	64.6 ± 1.39 (≈ 179 µM)	7.98 ± 0.1 (≈ 22.1 µM)	25.3 ± 0.89 (≈ 70.2 µM)	58.32 ± 0.32 (≈ 162 µM)	13 ± 1.8 (≈ 36.1 µM)			
COC(=O)c1c(O)cc2c(c1C(=O)OC)CC[C@H]1C(C)(C)CCC[C@]21C [Compound 17]	4.95 ± 0.13 (≈ 13.7 µM)	11.8 ± 2.97 (≈ 32.7 µM)	7.49 ± 0.86 (≈ 20.8 µM)	4.74 ± 1.27 (≈ 13.2 µM)	5.96 ± 0.55 (≈ 16.5 µM)	8.15 ± 0.1 (≈ 22.6 µM)	< 10	30.52%	5.96 ± 0.55 µg/mL and 5.97 ± 0.55 µg/mL	
COC(=O)C1=C(C(=O)OC)C2(C)CC[C@H]3C(C)(C)CCC[C@]3(C)C2=CC1=O (some centres unmarked) [Compound 16]	14.5 ± 0.68 (≈ 38.7 µM)		26.7 ± 0.88 (≈ 71.4 µM)	2.98 ± 0.04 (≈ 7.96 µM)	11.9 ± 0.8 (≈ 31.8 µM)	26.7 ± 0.88 (≈ 71.4 µM)	< 10	100%	6.01 ± 0.41 µg/mL (≈ 16 µM)	IC50 NO [2]: 5.71 ± 0.14 µg/mL (≈ 15.2 µM); NO inhibition ([2]; at ¼ IC50 concentration): 100%; NO inhibition ([2]; at ½ IC50 concentration): 100%; cells in the S phase ([6]; ¼ IC50, 72 h): 63%; percentage of cells in the G0/G1 phase ([6]; ¼ IC50, 72 h, LPS control 100%, negative control 49.6%): 35%; changes in the G2/M phase ([6]; ¼, ½ and ¾ IC50, 72 h): not significant; cells in the S phase ([6]; ½ IC50, 72 h): 61%; percentage of cells in the G0/G1 phase ([6]; ½ IC50, 72 h): 38%; cells in the S phase ([6]; ¾ IC50, 72 h): 59%; percentage of cells in the G0/G1 phase ([6]; ¾ IC50, 72 h): 39%
CC1(C)CCC[C@]2(C)c3cc4c(cc3CC[C@@H]12)CC(=O)O4 [Compound 25]	42.6 ± 0.74 (≈ 150 µM)	66.33 ± 0.35 (≈ 233 µM)	53.92 ± 0.36 (≈ 190 µM)	22.58 ± 0.05 (≈ 79.4 µM)	74.3 ± 2.19 (≈ 261 µM)	77.97 ± 0.72 (≈ 274 µM)	74.3 ± 2.19 (≈ 261 µM)	72.24%		
COC(=O)c1c(O)cc2c(c1C)CC[C@H]1C(C)(C)CCC[C@]21C [Compound 18]	7.32 ± 2.53 (≈ 23.1 µM)	20.4 ± 0.26 (≈ 64.4 µM)	13.1 ± 1.51 (≈ 41.4 µM)	31.4 ± 4.9 (≈ 99.1 µM)	30.7 ± 0.49 (≈ 96.9 µM)	13.57 ± 0.12 (≈ 42.9 µM)	< 10	11.06%	5.96 ± 0.35 µg/mL (≈ 18.8 µM)	
CC1(C)CCC[C@]2(C)c3cc(O)c(CO)cc3CC[C@@H]12 [Compound 24]	9.09 ± 0.03 (≈ 33.1 µM)	20.8 ± 0.48 (≈ 75.6 µM)	13.94 ± 0.07 (≈ 50.8 µM)	15.2 ± 2.13 (≈ 55.4 µM)	17.4 ± 1.97 (≈ 63.5 µM)	24.2 ± 2.71 (≈ 88.3 µM)	10.51 ± 0.01 (≈ 38.3 µM)	did not cause any inhibition of NO release		
CC1(C)CCC[C@]2(C)c3cc(O)c(C=O)cc3CC[C@@H]12 [Compound 23]	5.13 ± 0.18 (≈ 18.8 µM)	6.8 ± 0.24 (≈ 25 µM)	5.87 ± 0.18 (≈ 21.6 µM)	3.22 ± 0.05 (≈ 11.8 µM)	5.19 ± 0.17 (≈ 19.1 µM)	8.36 ± 1.77 (≈ 30.7 µM)	4.33 ± 0.27 (≈ 15.9 µM)	78.48%		IC50 NO [2]: 3.32 ± 0.05 µg/mL (≈ 12.2 µM)
Cc1c2c(cc3occc13)[C@@]1(C)CCCC(C)(C)[C@@H]1CC2 [Compound 7, (5a)-vouacapane-8(14),9(11)-diene]						14 ± 0.5 (≈ 49.4 µM)	31.7 ± 1.1 (≈ 112 µM)			IC20 ([1]; RAW264.7, 72 h): 50.9 ± 1.61 µg/mL (≈ 180 µM); IC50 ([1]; RAW264.7, 72 h): 57.5 ± 1.06 µg/mL (≈ 204 µM); IC80 ([1]; RAW264.7, 72 h): 65.5 ± 0.95 µg/mL (≈ 232 µM); inhibition of NO production [7]: did not show any significant inhibition of NO production; IC50 [3]: 20.7 ± 1.09 µg/mL (≈ 73.2 µM)
Cc1c(CO)c(O)cc2c1CC[C@H]1C(C)(C)CCC[C@]21C [Compound 19]	70.83 ± 0.28 (≈ 246 µM)	78.94 ± 0.28 (≈ 274 µM)	74.65 ± 0.17 (≈ 259 µM)	27.57 ± 0.2 (≈ 95.6 µM)	49 ± 0.72 (≈ 170 µM)	12.2 ± 1.78 (≈ 42.4 µM)	48.8 ± 2.79 (≈ 169 µM)			
COC(=O)c1ccc2c(c1C(=O)OC)CC[C@H]1C(C)(C)CCC[C@]21C [Compound 14]	22.92 ± 0.13 (≈ 66.5 µM)	26.89 ± 0.02 (≈ 78.1 µM)	24.67 ± 0.04 (≈ 71.6 µM)	10.7 ± 1.14 (≈ 31.1 µM)	15.4 ± 2.72 (≈ 44.8 µM)	33.8 ± 0.8 (≈ 98 µM)	< 10		9.25 ± 0.74 µg/mL (≈ 26.9 µM)	
Cc1c2c(cc3c1CC[C@H]1C(C)(C)CCC[C@]31C)OC(=O)C2 [Compound 5, pterolobirin H]										IC20 ([1]; RAW264.7, 72 h): 34.9 ± 2.11 µg/mL (≈ 117 µM); IC80 ([1]; RAW264.7, 72 h): 64.2 ± 3.29 µg/mL (≈ 215 µM)
